Reference: PubChem BioAssay AID1259407 (Chemical Carcinogenesis Research Information System (CCRIS), 2018)
The source made the active and inactive calls. The rule behind the calls is not given here.

Tested on: CCRIS mutagenicity, Ames/micronucleus/aberration tests
Test: CCRIS mutagenicity studies
[1] = Test System: AMES SALMONELLA TYPHIMURIUM, Strain/Indicator: TA98, Metabolic Activation: RAT, LIVER, S-9, AROCLOR 1254, Method: STANDARD PLATE
[2] = Test System: AMES SALMONELLA TYPHIMURIUM, Strain/Indicator: TA100, Metabolic Activation: NONE, Method: STANDARD PLATE
[3] = Test System: MOUSE LYMPHOMA, Strain/Indicator: L5178Y (TK+/TK-), Metabolic Activation: NONE, Method: SUSPENSION/PLATE
[4] = Test System: MOUSE LYMPHOMA, Strain/Indicator: L5178Y (TK+/TK-), Metabolic Activation: RAT, LIVER, S-9, AROCLOR 1254, Method: SUSPENSION/PLATE

For `CN(C)C=O`, the mutagenic call (Test System: AMES SALMONELLA TYPHIMURIUM, Strain/Indicator: TA97, Metabolic Activation: NONE, Method: STANDARD PLATE) was “inactive; negative”, the mutagenic call (Test System: AMES SALMONELLA TYPHIMURIUM, Strain/Indicator: TA97, Metabolic Activation: RAT, LIVER, S-9, AROCLOR 1254, Method: STANDARD PLATE) was “inactive; negative” and the mutagenic call (Test System: AMES SALMONELLA TYPHIMURIUM, Strain/Indicator: TA98, Metabolic Activation: NONE, Method: STANDARD PLATE) was “inactive; negative”. The mutagenic call [1] was “inactive; negative”, the mutagenic call [2] was “inactive; negative” and the mutagenic call (Test System: AMES SALMONELLA TYPHIMURIUM, Strain/Indicator: TA100, Metabolic Activation: RAT, LIVER, S-9, AROCLOR 1254, Method: STANDARD PLATE) was “inactive; negative”. For the same molecule, the mutagenic call (Test System: Ames Salmonella typhimurium, Strain/Indicator: TA98, Metabolic Activation: None, Method: Gas exposure method) was “inactive; negative”, the mutagenic call (Test System: Ames Salmonella typhimurium, Strain/Indicator: TA98, Metabolic Activation: Rat, Liver, S9, Sodium phenobarbital and 5,6-benzoflavone (10%), Method: Gas exposure method) was “inactive; negative” and the mutagenic call (Test System: Ames Salmonella typhimurium, Strain/Indicator: TA100, Metabolic Activation: None, Method: Gas exposure method) was “inactive; negative”. For the same molecule, the mutagenic call (Test System: Ames Salmonella typhimurium, Strain/Indicator: TA100, Metabolic Activation: Rat, Liver, S9, Sodium phenobarbital and 5,6-benzoflavone (10%), Method: Gas exposure method) was “inactive; negative”, the mutagenic call (Test System: Ames Salmonella typhimurium, Strain/Indicator: TA1535, Metabolic Activation: None, Method: Gas exposure method) was “inactive; negative” and the mutagenic call (Test System: Ames Salmonella typhimurium, Strain/Indicator: TA1535, Metabolic Activation: Rat, Liver, S9, Sodium phenobarbital and 5,6-benzoflavone (10%), Method: Gas exposure method) was “inactive; negative”. The mutagenic call (Test System: Ames Salmonella typhimurium, Strain/Indicator: TA1537, Metabolic Activation: None, Method: Gas exposure method) was “inactive; negative”, the mutagenic call (Test System: Ames Salmonella typhimurium, Strain/Indicator: TA1537, Metabolic Activation: Rat, Liver, S9, Sodium phenobarbital and 5,6-benzoflavone (10%), Method: Gas exposure method) was “inactive; negative” and the mutagenic call (Test System: E. coli, Strain/Indicator: WP2uvrA/pKM101, Metabolic Activation: None, Method: Gas exposure method) was “inactive; negative”. For the same molecule, the mutagenic call (Test System: E. coli, Strain/Indicator: WP2uvrA/pKM101, Metabolic Activation: Rat, Liver, S9, Sodium phenobarbital and 5,6-benzoflavone (10%), Method: Gas exposure method) was “inactive; negative”, the mutagenic call [3] was “inactive; negative” and the mutagenic call [4] was “inactive; negative”. For the same molecule, the mutagenic call (Test System: MOUSE LYMPHOMA, Strain/Indicator: L5178Y (TK+/TK-), Metabolic Activation: RAT, LIVER, S-9, Method: SUSPENSION/PLATE) was “inactive; negative”.

For `COc1cc(-c2ccc(N)c(OC)c2)ccc1N`, the mutagenic call (End Point: IN VITRO CHROMOSOMAL ABERRATIONS, Test System: CHL CELLS, Metabolic Activation: RAT, LIVER, S-9, SODIUM PHENOBARBITAL AND 5,6-BENZOFLAVONE) was “active; positive (structural changes); precipitation of test chemical observed above 0.6”, the mutagenic call (Test System: AMES SALMONELLA TYPHIMURIUM, Strain/Indicator: SV50, Metabolic Activation: NONE, Method: PREINCUBATION (PRIVAL METHOD)) was “inactive; negative” and the mutagenic call (Test System: AMES SALMONELLA TYPHIMURIUM, Strain/Indicator: SV50, Metabolic Activation: RAT, LIVER, S-9, AROCLOR 1254, Method: STANDARD PLATE) was “inactive; negative”. For the same molecule, the mutagenic call (Test System: AMES SALMONELLA TYPHIMURIUM, Strain/Indicator: TA98(1,8-DNP6), Metabolic Activation: NONE, Method: STANDARD PLATE) was “inactive; negative”, the mutagenic call (Test System: AMES SALMONELLA TYPHIMURIUM, Strain/Indicator: TA98(1,8-DNP6), Metabolic Activation: S-9, Method: STANDARD PLATE) was “active; positive” and the mutagenic call (Test System: AMES SALMONELLA TYPHIMURIUM, Strain/Indicator: TA98, Metabolic Activation: HAMSTER, LIVER, S-9, AROCLOR 1254, Method: PREINCUBATION) was “active; positive”. The mutagenic call (Test System: AMES SALMONELLA TYPHIMURIUM, Strain/Indicator: TA98, Metabolic Activation: HAMSTER, LIVER, S-9, Method: PREINCUBATION (PRIVAL METHOD)) was “inactive; negative”, the mutagenic call (Test System: AMES SALMONELLA TYPHIMURIUM, Strain/Indicator: TA98, Metabolic Activation: RAT LIVER S-9, AROCLOR 1254, Method: PREINCUBATION) was “active; positive” and the mutagenic call (Test System: AMES SALMONELLA TYPHIMURIUM, Strain/Indicator: TA98, Metabolic Activation: RAT LIVER S-9, PHENOBARBITAL AND BETA-NAPHTHOFLAVONE, Method: PREINCUBATION) was “active; positive”. For the same molecule, the mutagenic call (Test System: AMES SALMONELLA TYPHIMURIUM, Strain/Indicator: TA98, Metabolic Activation: RAT, LIVER, S-9, AROCLOR 1254, Method: PREINCUBATION) was “active; positive”, the mutagenic call [1] was “active; positive” and the mutagenic call (Test System: AMES SALMONELLA TYPHIMURIUM, Strain/Indicator: TA98, Metabolic Activation: RAT, LIVER, S-9, PCB, Method: PREINCUBATION) was “active; positive”. For the same molecule, the mutagenic call (Test System: AMES SALMONELLA TYPHIMURIUM, Strain/Indicator: TA98, Metabolic Activation: S-9, Method: STANDARD PLATE) was “active; positive”, the mutagenic call (Test System: AMES SALMONELLA TYPHIMURIUM, Strain/Indicator: TA100, Metabolic Activation: HAMSTER, LIVER, S-9, AROCLOR 1254, Method: PREINCUBATION) was “inactive; negative” and the mutagenic call (Test System: AMES SALMONELLA TYPHIMURIUM, Strain/Indicator: TA100, Metabolic Activation: NONE, Method: PREINCUBATION) was “inactive; negative”. The mutagenic call [2] was “inactive; negative”, the mutagenic call (Test System: AMES SALMONELLA TYPHIMURIUM, Strain/Indicator: TA100, Metabolic Activation: RAT LIVER S-9, AROCLOR 1254, Method: PREINCUBATION) was “active; positive” and the mutagenic call (Test System: AMES SALMONELLA TYPHIMURIUM, Strain/Indicator: TA100, Metabolic Activation: RAT LIVER S-9, PHENOBARBITAL AND BETA-NAPHTHOFLAVONE, Method: PREINCUBATION) was “inactive; negative”. The mutagenic call (Test System: AMES SALMONELLA TYPHIMURIUM, Strain/Indicator: TA100, Metabolic Activation: RAT, LIVER, S-9, AROCLOR 1254, Method: PREINCUBATION) was “active; positive”, the mutagenic call (Test System: AMES SALMONELLA TYPHIMURIUM, Strain/Indicator: TA100, Metabolic Activation: RAT, LIVER, S-9, PCB, Method: PREINCUBATION) was “active; positive” and the mutagenic call (Test System: AMES SALMONELLA TYPHIMURIUM, Strain/Indicator: TA100, Metabolic Activation: S-9, Method: STANDARD PLATE) was “inactive; negative”. For the same molecule, the mutagenic call (Test System: AMES SALMONELLA TYPHIMURIUM, Strain/Indicator: TA1535, Metabolic Activation: NONE, Method: PREINCUBATION) was “inactive; negative”, the mutagenic call (Test System: AMES SALMONELLA TYPHIMURIUM, Strain/Indicator: TA1535, Metabolic Activation: RAT, LIVER, S-9, AROCLOR 1254, Method: PREINCUBATION) was “inactive; negative” and the mutagenic call (Test System: AMES SALMONELLA TYPHIMURIUM, Strain/Indicator: TA1535, Metabolic Activation: RAT, LIVER, S-9, AROCLOR 1254, Method: STANDARD PLATE) was “active; positive”. The mutagenic call (Test System: AMES SALMONELLA TYPHIMURIUM, Strain/Indicator: TA1537, Metabolic Activation: HAMSTER, LIVER, S-9, AROCLOR 1254, Method: PREINCUBATION) was “inactive; negative”, the mutagenic call (Test System: AMES SALMONELLA TYPHIMURIUM, Strain/Indicator: TA1537, Metabolic Activation: NONE, Method: PREINCUBATION) was “inactive; negative” and the mutagenic call (Test System: AMES SALMONELLA TYPHIMURIUM, Strain/Indicator: TA1537, Metabolic Activation: RAT LIVER S-9, PHENOBARBITAL AND BETA-NAPHTHOFLAVONE, Method: PREINCUBATION) was “inactive; negative”. For the same molecule, the mutagenic call (Test System: AMES SALMONELLA TYPHIMURIUM, Strain/Indicator: TA1537, Metabolic Activation: RAT, LIVER, S-9, AROCLOR 1254, Method: PREINCUBATION) was “inactive; negative”, the mutagenic call (Test System: AMES SALMONELLA TYPHIMURIUM, Strain/Indicator: TA1538, Metabolic Activation: HAMSTER, LIVER, S-9, Method: STANDARD PLATE) was “active; positive” and the mutagenic call (Test System: AMES SALMONELLA TYPHIMURIUM, Strain/Indicator: TA1538, Metabolic Activation: RAT, LIVER, S-9, AROCLOR 1254, Method: STANDARD PLATE) was “active; positive”. The mutagenic call (Test System: AMES SALMONELLA TYPHIMURIUM, Strain/Indicator: TA1538, Metabolic Activation: RAT, LIVER, S-9, PHENOBARBITAL, Method: STANDARD PLATE) was “active; positive”, the mutagenic call (Test System: Ames Salmonella typhimurium, Strain/Indicator: TA98, Metabolic Activation: Rat, Liver, S-9, Sodium phenobarbitone, Method: Preincubation) was “active; positive, test conducted under both aerobic and anaerobic conditions” and the mutagenic call (Test System: Ames Salmonella typhimurium, Strain/Indicator: TA102, Metabolic Activation: None, Method: Preincubation) was “inactive; negative”. The mutagenic call (Test System: Ames Salmonella typhimurium, Strain/Indicator: TA102, Metabolic Activation: Rat, Liver, S-9, Aroclor 1254, 4%, Method: Preincubation) was “active; positive”, the mutagenic call (Test System: Ames Salmonella typhimurium, Strain/Indicator: TA1538, Metabolic Activation: Rat, Liver, S-9, Sodium phenobarbitone, Method: Preincubation) was “active; positive, test conducted under both aerobic and anaerobic conditions” and the mutagenic call [3] was “active; positive”. The mutagenic call [4] was “active; positive” and the mutagenic call (Test System: UDS HUMAN CELLS, Strain/Indicator: THY INCORP (NON-S-PHASE), Metabolic Activation: RAT, LIVER, S-9, PHENOBARBITAL, Method: LIQUID SCINTILLATION COUNTING) was “active; positive”.

For `O=C1NC(=O)C(Cl)C1=C(Cl)Cl` (stereo not drawn), the mutagenic call [2] was “active; positive”.
